This note sets out measurements from patent US11345698B2, “Substituted imidazo[1,2-a]pyridines, substituted imidazo[1,2-a]pyrazines, related compounds, and their use in the treatment of medical disorders” (Bial—R&D Investments, S.A., priority 2016, dated 2022).

The target in series [1] is T1, glucocerebrosidase (Gcase) (Homo sapiens, UniProt P04062).
T1 sequence (P04062 40-536): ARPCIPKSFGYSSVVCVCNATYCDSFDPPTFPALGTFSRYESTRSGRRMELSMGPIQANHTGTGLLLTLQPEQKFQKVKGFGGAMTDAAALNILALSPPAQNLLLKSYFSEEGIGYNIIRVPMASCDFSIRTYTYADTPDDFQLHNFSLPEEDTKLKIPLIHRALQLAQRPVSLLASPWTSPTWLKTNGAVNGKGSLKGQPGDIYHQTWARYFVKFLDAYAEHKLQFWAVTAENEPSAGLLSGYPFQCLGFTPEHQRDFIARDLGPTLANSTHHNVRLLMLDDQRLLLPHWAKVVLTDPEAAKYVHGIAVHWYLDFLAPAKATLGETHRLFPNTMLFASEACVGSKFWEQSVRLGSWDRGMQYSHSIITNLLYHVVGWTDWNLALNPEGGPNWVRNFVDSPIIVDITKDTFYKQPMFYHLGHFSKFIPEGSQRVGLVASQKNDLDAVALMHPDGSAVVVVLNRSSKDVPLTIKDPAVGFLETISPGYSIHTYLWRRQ
The experiment in a line: Glucocerebrosidase (Gcase) activation assay, 4-methylumbelliferyl-beta-D-glucopyranoside substrate, with saposin C. It is filed as biochemical. Particulars: 10 nM GCase, 100 nM saposin C, pH 4.7; for activation at 0.1 µM: read-out: Percent Gcase Activation, 0.1 μM Test Compound; for activation at 1 µM: read-out: Percent Gcase Activation, 1 μM Test Compound. The method, then: A 484 μL aliquot of a 1.0 mg/mL solution of phosphatidylserine (PS) (Sigma P7769) in chloroform was evaporated under a stream of nitrogen for 1 hour. The lipid film was dissolved over 4 minutes of vigorous vortexing in 40 mL of 176 mM K2HPO4/50 mM citric acid (pH 4.7) containing 7.5 μL of triton X-100, resulting in a mixed micellar preparation with a composition of 0.32 mM triton and 0.37 mol % PS. 4-Methylumbelliferyl-beta-D-glucopyranoside (ACROS-337025000) was dissolved in the micellar solution to a final concentration of 2 mM for use as the reaction substrate.
Test compounds were diluted to the desired concentrations with dimethylsulfoxide (DMSO) from 10 mM stocks, and 0.41 μL of the DMSO compound mixture was added to 100 μL of micellar solution containing 10 nM GCase and 100 nM saposin C (Enzo ALX-201-262-C050). Pre-incubation was allowed to occur for 30 minutes at room temperature, after which the reaction was initiated by combining 25 μL of substrate solution with 25 μL of compound/GCase/saposin mixture. The reaction proceeded for 15 minutes at room temperature and was stopped by adding 150 μL of 1M glycine, pH 12.5. The endpoint of the reaction was monitored by measuring fluorescence intensity (excitation: 365 nm; emission: 440 nm) on a SpectraMax i3 instrument (Molecular Devices). […]

Series [2] can be described thus: Compound solubility in water.

In brackets after ≈: the same amount, converted by molar mass.

By solubility is commonly meant the concentration that dissolves in the medium under given conditions. Low values mean a poorly soluble substance, high ones a readily soluble substance. With `Cc1nc2c(C(=O)NC3CCCc4ccccc43)cccc2o1` (stereo not drawn) [2-Methyl-N-(1,2,3,4-tetrahydronaphthalen-1-yl)benzo[d]oxazole-4-carboxamide], in series [1] (0.1 μM test compound), the activation at 0.1 µM is less than 5%. In addition, the activation at 1 µM in series [1] (1 μM test compound) was more than 20%. The molecule further displayed a solubility in series [2] of 1.5 µg/mL (≈ 4.9 µM).
For `Cc1cn2ccnc(C(=O)NC3CCCc4ccccc43)c2n1` (stereo not drawn) [2-Methyl-N-(1,2,3,4-tetrahydronaphthalen-1-yl)imidazo[1,2-a]pyrazine-8-carboxamide], in that order: less than 5%, less than 5% and 7.7 µg/mL (≈ 25.1 µM).
For `CCC(NC(=O)c1cccc2oc(C)nc12)c1ccccc1` (stereo not drawn) [2-Methyl-N-(1-phenylpropyl)benzo[d]oxazole-4-carboxamide], in that order: less than 5%, 5 to 20% and 13.2 µg/mL (≈ 44.7 µM).
Turning to `CCC(NC(=O)c1nccn2cc(C)nc12)c1ccccc1` (stereo not drawn) [2-Methyl-N-(1-phenylpropyl)imidazo[1,2-a]pyrazine-8-carboxamide], in series [1] (0.1 μM test compound), the activation at 0.1 µM is less than 5%. In addition, the activation at 1 µM in series [1] (1 μM test compound) is less than 5%. Besides, the solubility in series [2] was 10.9 µg/mL (≈ 37.1 µM).
`CCCCCO[C@H]1CC[C@H](NC(=O)c2cccc3oc(C)nc23)CC1` [2-Methyl-N-((1R,4R)-4-(pentyloxy)cyclohexyl)benzo[d]oxazole-4-carboxamide]: in series [1] (0.1 μM test compound), the activation at 0.1 µM is less than 5%. Moreover, the activation at 1 µM in series [1] (1 μM test compound) was less than 5%. For the same molecule, the concentration in solution in series [2] (solubility) was 1.6 µg/mL (≈ 4.65 µM).
Consider `CCCCCO[C@H]1CC[C@H](NC(=O)c2nccn3cc(C)nc23)CC1` [2-Methyl-N—((R 4R)-4-(pentyloxy)cyclohexyl)imidazo[1,2-a]pyrazine-8-carboxamide], for which the activation at 0.1 µM in series [1] (0.1 μM test compound) was less than 5%. In addition, in series [1] (1 μM test compound), the activation at 1 µM is less than 5%. The molecule also showed a solubility in series [2] of 8.4 µg/mL (≈ 24.4 µM).
Consider `Cc1ccc(C(=O)NC2CCCc3ccccc32)c2nccn12` (stereo not drawn) [5-Methyl-N-(1,2,3,4-tetrahydronaphthalen-1-yl)imidazo[1,2-a]pyridine-8-carboxamide], for which the activation at 0.1 µM in series [1] (0.1 μM test compound) was in the range of 5 to 20%. Also, the activation at 1 µM in series [1] (1 μM test compound) was more than 20%. In addition, the concentration in solution in series [2] (solubility) came to 0.2 µg/mL (≈ 0.655 µM).
For `CCC(NC(=O)c1ccc(C)n2ccnc12)c1ccccc1` (stereo not drawn) [5-Methyl-N-(1-phenylpropyl)imidazo[1,2-a]pyridine-8-carboxamide], in that order: 5 to 20%, more than 20% and 6.2 µg/mL (≈ 21.1 µM).
For `CCCCCO[C@H]1CC[C@H](NC(=O)c2ccc(C)n3ccnc23)CC1` [5-Methyl-N-((1S,4S)-4-(pentyloxy)cyclohexyl) imidazo[1,2-a]pyridine-8-carboxamide], in that order: 5 to 20%, more than 20% and 14.2 µg/mL (≈ 41.3 µM).
On to `Cc1ccc(C(=O)N[C@@H](C)C2CC2)c2nccn12` [(S)—N-(1-Cyclopropylethyl)-5-methylimidazo[1,2-a]pyridine-8-carboxamide], for which, in series [1] (0.1 μM test compound), the activation at 0.1 µM is less than 5%. Besides, the activation at 1 µM in series [1] (1 μM test compound) fell in the range of 5 to 20%.
With `Cc1ccc(C(=O)NC(C2CC2)C(F)(F)F)c2nccn12` (stereo not drawn) [N-(1-Cyclopropyl-2,2,2-trifluoroethyl)-5-methylimidazo[1,2-a]pyridine-8-carboxamide], the activation at 0.1 µM in series [1] (0.1 μM test compound) lay within 5 to 20%. Moreover, the activation at 1 µM in series [1] (1 μM test compound) is more than 20%. In series [2], this molecule had a solubility of 9.9 µg/mL (≈ 33.3 µM).
On to `Cc1nc2c(C(=O)Nc3ccc4c(c3)CCC4)cccc2o1` [N-(2,3-Dihydro-1H-inden-5-yl)-2-methylbenzo[d]oxazole-4-carboxamide], for which the activation at 0.1 µM in series [1] (0.1 μM test compound) is less than 5%. For the same molecule, in series [1] (1 μM test compound), the activation at 1 µM was in the range of 5 to 20%. The same molecule had a solubility in series [2] of 0.3 µg/mL (≈ 1.03 µM).
As to `Cc1cn2ccnc(C(=O)Nc3ccc4c(c3)CCC4)c2n1` [N-(2,3-Dihydro-1H-inden-5-yl)-2-methylimidazo[1,2-al]pyrazine-8-carboxamide], the activation at 0.1 µM in series [1] (0.1 μM test compound) is less than 5%. For the same molecule, in series [1] (1 μM test compound), the activation at 1 µM was 5 to 20%. This molecule had a solubility in series [2] of 1 µg/mL (≈ 3.42 µM).
Take `Cc1ccc(C(=O)Nc2ccc3c(c2)CCC3)c2nccn12` [N-(2,3-Dihydro-1H-inden-5-yl)-5-methylimidazo[1,2-a]pyridine-8-carboxamide]: the activation at 0.1 µM in series [1] (0.1 μM test compound) is less than 5%. In addition, the activation at 1 µM in series [1] (1 μM test compound) is more than 20%. For the same molecule, the solubility in series [2] is 0.4 µg/mL (≈ 1.37 µM).
Consider `Cc1ccc(C(=O)NC(C)(C)C2CC2)c2nccn12` [N-(2-Cyclopropylpropan-2-yl)-5-methylimidazo[1,2-a]pyridine-8-carboxamide], for which, in series [1] (0.1 μM test compound), the activation at 0.1 µM was less than 5%. Besides, in series [1] (1 μM test compound), the activation at 1 µM is more than 20%.
`C#Cc1ccc(NC(=O)c2nccn3cc(C)nc23)cc1` [N-(4-Ethynlphenyl)-2-methylimidazo[1,2-a]pyrazine-8-carboxamide]: the activation at 0.1 µM in series [1] (0.1 μM test compound) is less than 5%. Further, in series [1] (1 μM test compound), the activation at 1 µM lay in the range of 5 to 20%. Further, the concentration in solution in series [2] (solubility) was 0.8 µg/mL (≈ 2.9 µM).
Consider “N-(4-Ethynylphenyl)-5-methylimidazo[1,2-a]pyrazine-8-carboxamide”, for which the “Percent Gcase Activation, 0.1 μM Test Compound” value in series [1] (0.1 μM test compound) is “++ (Gcase activation in the range of 5% up to 20%)”. For the same molecule, the “Percent Gcase Activation, 1 μM Test Compound” value in series [1] (1 μM test compound) is “+++ (Gcase activation greater than 20%)”.
